Results taken from US9216183B2, “Topical treatment for chemotherapy induced eyelash loss or hypotrichosis using prostamide F2 alpha agonists” (ALLERGAN, INC., priority 2002, dated 2015).
“And” between values parts separate entries of the source, which are not always exact repeats. Identical values can stand only once. “Also recorded” adds a separate entry of the source.

Experiments:
[1] = Safety, overall study population (adverse events, ophthalmic examination, IOP, iris color); type: in vivo, human
Experimental: Safety measures included adverse events (AEs), ophthalmic examination (ophthalmoscopy [dilated], biomicroscopy, IOP, iris color assessment, and BCVA). AEs were monitored throughout the study by the investigator.
The 12-month data were the primary focus of the safety evaluation. Safety data were summarized with descriptive statistics (n, or frequency distributions [counts or percentages]). Biomicroscopic examinations and assessments of iris color, IOP, and BCVA were performed for each subject at screening/baseline and months 1, 2, 4, 6, 8, and 12 (or early termination prior to month 12); ophthalmoscopic examinations (dilated) were performed at screening/baseline and months 6 and 12 (or early termination prior to month 12). Two IOP measurements were taken for each eye at each visit; a third measurement was taken if the difference between the first 2 measurements was more than 2 mm Hg. The average or median IOP was determined in the event that 2 or 3 measurements were made, respectively. The IOP value analyzed at each visit was the average IOP of the subject's 2 eyes. Change and percent change from baseline in IOP were summarized by descriptive statistics. Between-group comparison will be performed using the 1-way analysis of variance.
Iris color assessments were performed using a 10-category subjective classification: blue, blue-gray, blue/gray-brown, gray, green, green-brown, hazel, brown, dark brown, and other.

[2] = test system: eyelashes of subjects with idiopathic hypotrichosis; assay: GEA / ESQ Domain 2 responder analysis, 1-year clinical study, idiopathic hypotrichosis; type: in vivo, human
Text: A one-year, multicenter, randomized, double-masked, vehicle-controlled study. Adult post-chemotherapy and idiopathic eyelash hypotrichosis subjects were enrolled based on their score of 1 or 2 on a four point ordinal Global Eyelash Assessment (GEA) scale, and in addition having a low score on a PRO measure associated with 'psychological impact' of the condition, a domain-2 of the Eyelash Satisfaction Questionnaire (ESQ). The study involved two treatment periods of six months each. In the first treatment period, subjects for both populations were randomized 3:1 for QD bimatoprost: vehicle treatment. In the second 6-month treatment period, all subjects were moved to bimatoprost treatment, except for a group of bimatoprost treated idiopathic hypotrichosis subjects (n=55) who were switched to vehicle to investigate the effect of drug discontinuation. The study included 9 visits over the 12-month treatment period. The primary end point was the proportion of responders within each treatment group based on a composite measure of GEA and ESQ Domain-2 (investigator assessed eyelash prominence and subject's assessment of 'psychological impact' related to eyelashes) at month-4. This multicenter, double-masked, randomized, parallel-group study included two 6-month treatment periods. Subjects with idiopathic hypotrichosis were randomized to 3 treatment groups: 1) treatment period 1 (TP1) and TP2: bimatoprost; 2) TP1: bimatoprost; TP2: vehicle; and 3) TP1: vehicle; TP2: bimatoprost. Subjects with chemotherapy-induced hypotrichosis were randomized to 2 treatment groups: 1) TP1: bimatoprost or vehicle; and 2) TP2: bimatoprost. The primary endpoint was a composite of at least a 1-grade improvement in investigator-assessed Global Eyelash Assessment (GEA), and at least a 3-point improvement in subject-reported Eyelash Satisfaction Questionnaire (ESQ) Domain 2 (self-perceived confidence, attractiveness, and professionalism) at month 4. Secondary measures included digitally assessed eyelash characteristics (i.e., eyelash length, fullness, and darkness). Idiopathic hypotrichosis subjects were randomized to 3 treatment arms in a 2:1:1 ratio: bimatoprost during both treatment periods; vehicle in TP1 and bimatoprost in TP2; and bimatoprost in TP1 and vehicle in TP2. Chemotherapy-induced hypotrichosis subjects were randomized in a 3:1 ratio to receive bimatoprost during both treatment periods or vehicle in TP1 followed by bimatoprost in TP2. Male or female subjects at least 18 years of age who met these criteria were eligible for inclusion in the study: a score of 1 or 2 on the clinician-graded global eyelash assessment (“GEA”); a score of 1 (very much disagree) or 2 (disagree) on each of 3 items (16 [confidence], 19 [attractiveness], and 18 [professionalism]) on the subject-assessed eyelash satisfaction questionnaire (“esq”); best-corrected visual acuity (“bcva”) score equivalent to a […] acuity of 20/100 or better in each eye; and intraocular pressure (“iop”) 20 mm hg or less in each eye. Subjects in the chemotherapy-induced hypotrichosis population also met the following inclusion criteria: inadequate eyelashes after completing chemotherapy; treatment for solid tumor type stage 1, 2, or 3a cancer; last chemotherapy treatment at least 4 to less than 16 weeks prior to baseline; and considered free of cancer. Key exclusion criteria included subjects with any eye disease or abnormality or a history of eye surgery. Subjects placed 1 drop of study treatment (i.e., bimatoprost 0.03% or vehicle) onto a sterile single-use-per eye applicator and applied it to the upper eyelid margin of 1 eye; a second applicator was used for the contralateral eye. Treatment was applied once daily in the evening throughout the study. […]

[3] = overall population during bimatoprost treatment periods
[4] = subjects treated with bimatoprost, 10-category scale
[5] = Bim/Veh group (n = 60), Month 1 (on bimatoprost)
[6] = Bim/Veh group (n = 60), Month 2 (on bimatoprost)
[7] = Bim/Veh group (n = 60), Month 4 (on bimatoprost)
[8] = Bim/Veh group (n = 60), Month 6 (on bimatoprost)
[9] = Bim/Veh group (n = 60), Month 7 (vehicle since month 6)
[10] = Bim/Veh group (n = 60), Month 8 (vehicle since month 6)
[11] = Bim/Veh group (n = 60), Month 10 (vehicle since month 6)
[12] = Bim/Veh group (n = 60), Month 12 (vehicle since month 6)
[13] = Month 4, all bimatoprost TP1 (n = 179)
[14] = Month 6, all bimatoprost TP1 (n = 179)

For `CCNC(=O)CCC/C=C\C[C@@H]1[C@@H](/C=C/[C@@H](O)CCc2ccccc2)[C@H](O)C[C@@H]1O` [Bim 0.03%, bimatoprost], the “1-category change in iris hyperpigmentation reported as an AE” value ([1]; about 2 months after discontinuation of bimatoprost and initiation of vehicle, mild) was 1 subject, the “Greatest magnitude of mean change from baseline IOP” value ([1]; any time point, any group) was “less than 2 mm Hg” and the “Subjects with biomicroscopy and ophthalmoscopy findings of at least a 2-severity grade increase from baseline” value ([1]; bimatoprost 0.03% followed by vehicle (6-month treatment period)) was 5.0%. For the same compound, the “Subjects with biomicroscopy and ophthalmoscopy findings of at least a 2-severity grade increase from baseline” value ([1]; bimatoprost during both treatment periods (12-month treatment period)) was 4.2%, the “Drug-related serious adverse events” value ([1]; both subpopulations, 12-month study) was “No drug-related serious adverse events were reported; also recorded: no serious AEs attributed to study treatment” and the Conjunctival hyperaemia [1, 3] was 12.1%. It also gave an Erythema [1, 3] of 4.2%, an Eyelid pruritus [1, 3] of 4.7% and a Punctuate keratitis [1, 3] of 5.6%. For the same compound, the “1- to 2-category iris color change from dark to light” value [1, 4] was 6 subjects, the “1-category iris color change from light to dark” value [1, 4] was 5 subjects and the “Subjects with biomicroscopy and ophthalmoscopy findings of at least a 2-severity grade increase from baseline” value ([1]; vehicle followed by bimatoprost (6-month treatment period)) was 2.4%. For the same compound, the “Subjects discontinued due to a treatment-related AE” value ([1]; whole study (study treatment), all in idiopathic subpopulation) was 2.8%, the “Enophthalmos leading to treatment discontinuation” value ([1]; whole study, mild/moderate) was 1 subject and the “Primary composite endpoint responders (≧1-grade GEA and ≧3-point ESQ Domain 2 improvement)” value (“Primary composite endpoint responders” below) [2, 5] was 0.0%. For the same compound, the “≧1-Grade Improvement From Baseline GEA Score” value [2, 5] was 10.0%, the “≧2-Grade Improvement From Baseline GEA Score” value [2, 5] was 0.0% and the “≧3-Point Improvement From Baseline ESQ Domain 2 Score” value [2, 5] was 13.3%. For the same compound, the “Primary composite endpoint responders” value [2, 6] was 13.3%, the “≧1-Grade Improvement From Baseline GEA Score” value [2, 6] was 40.0% and the “≧2-Grade Improvement From Baseline GEA Score” value [2, 6] was 3.3%. For the same compound, the “≧3-Point Improvement From Baseline ESQ Domain 2 Score” value [2, 6] was 25.0%, the “Primary composite endpoint responders” value [2, 7] was 41.7% and the “≧1-Grade Improvement From Baseline GEA Score” value [2, 7] was 71.7%. For the same compound, the “≧2-Grade Improvement From Baseline GEA Score” value [2, 7] was 25.0%, the “≧3-Point Improvement From Baseline ESQ Domain 2 Score” value [2, 7] was 48.3% and the “Primary composite endpoint responders” value [2, 8] was 48.3%. For the same compound, the “≧1-Grade Improvement From Baseline GEA Score” value [2, 8] was 76.7%, the “≧2-Grade Improvement From Baseline GEA Score” value [2, 8] was 30.0% and the “≧3-Point Improvement From Baseline ESQ Domain 2 Score” value [2, 8] was 56.7%. For the same compound, the “Primary composite endpoint responders” value [2, 9] was 51.7%, the “≧1-Grade Improvement From Baseline GEA Score” value [2, 9] was 78.3% and the “≧2-Grade Improvement From Baseline GEA Score” value [2, 9] was 30.0%. For the same compound, the “≧3-Point Improvement From Baseline ESQ Domain 2 Score” value [2, 9] was 56.7%, the “Primary composite endpoint responders” value [2, 10] was 50.0% and the “≧1-Grade Improvement From Baseline GEA Score” value [2, 10] was 78.3%. The “≧2-Grade Improvement From Baseline GEA Score” value [2, 10] was 28.3%, the “≧3-Point Improvement From Baseline ESQ Domain 2 Score” value [2, 10] was 55.0% and the “Primary composite endpoint responders” value [2, 11] was 20.0%. For the same compound, the “≧1-Grade Improvement From Baseline GEA Score” value [2, 11] was 46.7%, the “≧2-Grade Improvement From Baseline GEA Score” value [2, 11] was 8.3% and the “≧3-Point Improvement From Baseline ESQ Domain 2 Score” value [2, 11] was 43.3%. The “Primary composite endpoint responders” value [2, 12] was 11.7%, the “≧1-Grade Improvement From Baseline GEA Score” value [2, 12] was 35.0% and the “≧2-Grade Improvement From Baseline GEA Score” value [2, 12] was 5.0%. The “≧3-Point Improvement From Baseline ESQ Domain 2 Score” value [2, 12] was 38.3%, the “Primary composite endpoint responders” value [2, 13] was 40.2% and the “Responders with ≧1-grade increase in GEA score” value [2, 13] was 74.3%. The “Responders with ≧2-grade increase in GEA score” value [2, 13] was 25.7%, the “Responders with ≧3-point increase in ESQ Domain 2” value [2, 13] was 47.5% and the “Responders with ≧1-grade increase in GEA score” value ([2]; Month 4, all bimatoprost TP1 (n = 179), listed as Bimatoprost) was 74.3%. For the same compound, the “Responders with ≧1-grade increase in GEA score” value ([2]; Month 4, all bimatoprost TP1 (n = 179), listed as bimatoprost) was 74.3% and > 70%, the “Primary composite endpoint responders” value [2, 14] was 47.5% and the “Responders with ≧1-grade increase in GEA score” value [2, 14] was 77.7%. The “Responders with ≧2-grade increase in GEA score” value [2, 14] was 30.7%, the “Responders with ≧3-point increase in ESQ Domain 2” value [2, 14] was 55.9% and the “Time efficacy was maintained after drug discontinuation” value ([2]; bimatoprost 6 months then vehicle) was “about 2 months”.
